# Results from patent US20230339937A1, “CONDENSED RING COMPOUNDS THAT INHIBIT H-PGDS” (SATO PHARMACEUTICAL CO., LTD., priority 2020, published 2023).
# Biological target: T1, Recombinant human H-PGDS (Homo sapiens, UniProt O60760)
# T1 construct: made in house; host or cells: E. coli
# Assay: H-PGDS inhibitory activity (prostaglandin D2 production from prostaglandin H2, measured by LC-MS/MS)
# Type: biochemical
# Details: recombinant human H-PGDS 1.0 nM expressed in E. coli; prostaglandin H2 25 μM; preincubated 15 minutes on ice, reacted on ice for 1 minute; concentration that inhibits prostaglandin D2 production by 50%
# Outline: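 Recombinant human H-PGDS (E. coli-expressed, 1.0 nM final) preincubated with compound 15 min on ice in 20 mM Tris-HCl pH 8.0, 2 mM MgCl2, 2 mM GSH, 0.5 mg/mL γ-globulin. Reaction with 25 µM PGH2 run 1 min on ice, stopped with FeCl2/citric acid, PGD2 quantified by LC-MS/MS. Activity expressed as % of DMSO control after subtracting non-enzymatic PGD2.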
# T1 sequence (O60760 whole entry): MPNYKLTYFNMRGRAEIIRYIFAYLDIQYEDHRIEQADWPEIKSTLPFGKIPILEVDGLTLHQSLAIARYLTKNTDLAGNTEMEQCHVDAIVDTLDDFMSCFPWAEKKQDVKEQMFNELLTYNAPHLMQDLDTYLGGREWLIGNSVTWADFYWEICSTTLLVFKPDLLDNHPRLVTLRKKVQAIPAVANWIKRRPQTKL
row,Structure (SMILES),IC50
1,"Cc1cc2occc2c(-c2ccc(C(=O)N[C@H]3CC[C@H](C(C)(C)O)CC3)cc2)n1 [Example 127, N-[trans-4-(2-hydroxypropan-2-yl)cyclohexyl]-4-(6-methylfuro[3,2-c]pyridin-4-yl)benzamide]",1.6 nM
2,"O=C(NCc1ccncc1)c1ccc(-c2nccc3sccc23)cc1 [Example 60, N-(pyridin-4-ylmethyl)-4-(thieno[3,2-c]pyridin-4-yl)benzamide]",15 nM
3,"CC(C)(O)[C@H]1CC[C@H](NC(=O)c2ccc(-c3ncc(F)c4occc34)cc2)CC1 [Example 136, 4-(7-fluorofuro[3,2-c]pyridin-4-yl)-N-[trans-4-(2-hydroxypropan-2-yl)cyclohexyl]benzamide]",9 nM
4,"Cc1cc2c(-c3ccc(C(=O)N[C@H]4CC[C@H](C(C)(C)O)CC4)cc3)nccc2o1 [Example 128, N-[trans-4-(2-hydroxypropan-2-yl)cyclohexyl]-4-(2-methylfuro[3,2-c]pyridin-4-yl)benzamide]",3.5 nM
5,"CC(O)CNC(=O)c1ccc(-c2nccc3[nH]ccc23)cc1 (stereo not shown) [Example 31, N-(2-hydroxypropyl)-4-(1H-pyrrolo[3,2-c]pyridin-4-yl)benzamide]",1.5 nM
6,"O=C(NCc1ccco1)c1ccc(-c2nccc3[nH]ccc23)cc1 [Example 26, N-(furan-2-ylmethyl)-4-(1H-pyrrolo[3,2-c]pyridin-4-yl)benzamide]",1.7 nM
7,"CCCCNC(=O)c1ccc(-c2nccc3occc23)cc1 [Example 75, N-butyl-4-(furo[3,2-c]pyridin-4-yl)benzamide]",20 nM
8,"O=C(Nc1cccnc1)c1ccc(-c2nccc3occc23)cc1 [Example 103, 4-(furo[3,2-c]pyridin-4-yl)-N-(pyridin-3-yl)benzamide]",2.1 nM
9,"O=C(NC1CC1)c1ccc(-c2nccc3occc23)cc1 [Example 95, N-cyclopropyl-4-(furo[3,2-c]pyridin-4-yl)benzamide]",8.7 nM
10,"O=C(NCC1CCCCC1)c1ccc(-c2nccc3[nH]ccc23)cc1 [Example 19, N-(cyclohexyl-methyl)-4-(1H-pyrrolo[3,2-c]pyridin-4-yl)benzamide]",1 nM
11,"CCn1nccc1CNC(=O)c1ccc(-c2nccc3[nH]ccc23)cc1 [Example 51, N-[(1-ethyl-1H-pyrazol-5-yl)methyl]-4-(1H-pyrrolo[3,2-c]pyridin-4-yl)benzamide]",0.63 nM
12,"O=C(NCC1CCCO1)c1ccc(-c2nccc3occc23)cc1 (stereo not shown) [Example 94, 4-(furo[3,2-c]pyridin-4-yl)-N-[(tetrahydro-furan-2-yl)methyl] benzamide]",12 nM
13,"CC(O)CNC(=O)c1ccc(-c2nccc3sccc23)cc1 (stereo not shown) [Example 61, N-(2-hydroxypropyl)-4-(thieno[3,2-c]pyridin-4-yl)benzamide]",31 nM
14,"Cc1coc2ccnc(-c3ccc(C(=O)N[C@H]4CC[C@H](C(C)(C)O)CC4)cc3)c12 [Example 130, N-[trans-4-(2-hydroxypropan-2-yl)cyclohexyl]-4-(3-methylfuro[3,2-c]pyridin-4-yl)benzamide]",6.8 nM
15,"O=C(NC1CC1)c1ccc(-c2nccc3[nH]ccc23)cc1 [Example 14, N-cyclopropyl-4-(1H-pyrrolo [3,2-c]pyridin-4-yl)benzamide]",1.4 nM
16,"Cn1ccc2c(-c3ccc(C(=O)N[C@H]4CC[C@H](C(C)(C)O)CC4)cc3)nccc21 [Example 4, N-[trans-4-(2-hydroxypropan-2-yl)cyclohexyl]-4-(1-methyl-1H-pyrrolo[3,2-c]pyridin-4-yl)benzamide]",7.4 nM
17,"Cc1cnc(-c2ccc(C(=O)N[C@H]3CC[C@H](C(C)(C)O)CC3)cc2)c2ccoc12 [Example 129, N-[trans-4-(2-hydroxypropan-2-yl)cyclohexyl]-4-(7-methylfuro[3,2-c]pyridin-4-yl)benzamide]",2.4 nM
18,"CC(C)(O)CO[C@H]1CC[C@H](NC(=O)c2ccc(-c3nccc4occc34)cc2)CC1 [Example 64, 4-(furo[3,2-c]pyridin-4-yl)-N-[trans-4-(2-hydroxy-2-methylpropoxy)cyclohexyl]benzamide]",3.1 nM
19,"O=C(Nc1cc(C2CC2)[nH]n1)c1ccc(-c2nccc3occc23)cc1 [Example 104, N-(5-cyclopropyl-1H-pyrazol-3-yl)-4-(furo[3,2-c]pyridin-4-yl)benzamide]",8 nM

# Now from value to molecule:
row,IC50,Structure (SMILES)
1,1.9 nM,"Cc1nnnn1[C@H]1CC[C@H](NC(=O)c2ccc(-c3nccc4occc34)cc2)CC1 [Example 297, 4-(furo[3,2-c]pyridin-4-yl)-N-[trans-4-(5-methyl-1H-tetrazol-1-yl)cyclohexyl]benzamide]"
2,4.3 nM,"CC(=O)N(C(C)=O)c1cnc(N2CCC(NC(=O)c3ccc(-c4nccc5occc45)cc3)CC2)nc1 [Example 188, N-{1-[5-(N-acetylacetamide)pyrimidin-2-yl]piperidin-4-yl}-4-(furo[3,2-c]pyridin-4-yl)benzamide]"
3,2.6 nM,"O=C(NC1CCN(c2cccc(=O)[nH]2)CC1)c1ccc(-c2nccc3occc23)cc1 [Example 172, 4-(furo[3,2-c]pyridin-4-yl)-N-[1-(6-oxo-1,6-dihydropyridin-2-yl)piperidin-4-yl]benzamide]"
4,1.3 nM,"CC[C@]1(O)CC[C@@H](NC(=O)c2ccc(-c3nccc4occc34)cc2)CC1 [Example 290, N-(cis-4-ethyl-4-hydroxycyclohexyl)-4-(furo[3,2-c]pyridin-4-yl)benzamide]"
5,1.2 nM,"CCn1nnnc1N1CCC(NC(=O)c2ccc(-c3nccc4occc34)cc2)CC1 [Example 239, N-[1-(1-ethyl-1H-tetrazol-5-yl)piperidin-4-yl]-4-(furo[3,2-c]pyridin-4-yl)benzamide]"
6,1.9 nM,"O=C(N[C@@H]1CN(c2ncc(CO)cn2)C[C@H]1F)c1ccc(-c2nccc3occc23)cc1 [Example 203, N-{(3R,4R)-4-fluoro-1-[5-(hydroxymethyl)pyrimidin-2-yl]pyrrolidin-3-yl}-4-(furo[3,2-c]pyridin-4-yl)benzamide]"
7,1 nM,"O=C(NC1CCN(c2cc(Cl)ncn2)CC1)c1ccc(-c2nccc3occc23)cc1 [Example 146, N-[1-(6-chloropyrimidin-4-yl)piperidin-4-yl]-4-(furo[3,2-c]pyridin-4-yl)benzamide]"
8,0.44 nM,"O=C(N[C@H]1CC[C@H](O)CC1)c1ccc(-c2nccc3[nH]ccc23)cc1 [Example 337, N-(trans-4-hydroxycyclohexyl)-4-(1H-pyrrolo[3,2-c]pyridin-4-yl)benzamide]"
9,3.2 nM,"Cn1nccc1N1CCC(NC(=O)c2ccc(-c3nccc4occc34)cc2)CC1 [Example 250, 4-(furo[3,2-c]pyridin-4-yl)-N-[1-(1-methyl-1H-pyrazol-5-yl)piperidin-4-yl]benzamide]"
10,1.8 nM,"O=C(NC1CCN(c2ccc(F)cn2)CC1)c1ccc(-c2nccc3occc23)cc1 [Example 149, N-[1-(5-fluoropyridin-2-yl)piperidin-4-yl]-4-(furo[3,2-c]pyridin-4-yl)benzamide]"
11,1.9 nM,"COc1ccnc(N2CCC(NC(=O)c3ccc(-c4nccc5occc45)cc3)CC2)n1 [Example 162, 4-(furo[3,2-c]pyridin-4-yl)-N-[1-(4-methoxypyrimidin-2-yl)piperidin-4-yl]benzamide]"
12,2 nM,"CC(C)n1nnnc1N1CCC(NC(=O)c2ccc(-c3nccc4occc34)cc2)CC1 [Example 242, 4-(furo[3,2-c]pyridin-4-yl)-N-[1-(1-isopropyl-1H-tetrazol-5-yl)piperidin-4-yl]benzamide]"
13,2.5 nM,"O=C(N[C@@H]1CC[C@@H](CO)OC1)c1ccc(-c2nccc3occc23)cc1 [Example 211, 4-(furo[3,2-c]pyridin-4-yl)-N-[(3R,6S)-6-(hydroxymethyl)tetrahydro-2 H-pyran-3-yl]benzamide]"
14,2.5 nM,"O=C(N[C@H]1CC[C@@H](O)CC1)c1ccc(-c2nccc3occc23)cc1 [Example 262, 4-(furo[3,2-c]pyridin-4-yl)-N-(cis-4-hydroxycyclohexyl)benzamide]"
15,1.7 nM,"Cc1cc2occc2c(-c2ccc(C(=O)NC3CCN(c4nnnn4C)CC3)cc2)n1 [Example 330, N-[1-(1-methyl-1H-tetrazol-5-yl)piperidin-4-yl]-4-(6-methylfuro[3,2-c]pyridin-4-yl)benzamide]"
16,1.2 nM,"O=C(NC12CC3CC(CC(O)(C3)C1)C2)c1ccc(-c2nccc3occc23)cc1 [Example 271, 4-(furo[3,2-c]pyridin-4-yl)-N-(3-hydroxyadamantan-1-yl)benzamide]"
17,3.6 nM,"O=C(NC1CCN(c2cccc3nccn23)CC1)c1ccc(-c2nccc3occc23)cc1 [Example 238, 4-(furo[3,2-c]pyridin-4-yl)-N-[1-(imidazo[1,2-a]pyridin-5-yl)piperidin-4-yl]benzamide]"
18,1.6 nM,"CCC(=O)N1CCC(NC(=O)c2ccc(-c3nccc4occc34)cc2)CC1 [Example 234, 4-(furo[3,2-c]pyridin-4-yl)-N-(1-propionylpiperidin-4-yl)benzamide]"
19,1.1 nM,"CC(C)(O)c1cnc(N2CC[C@H](NC(=O)c3ccc(-c4nccc5occc45)cc3)C2)nc1 [Example 200, (S)-4-(furo[3,2-c]pyridin-4-yl)-N-{1-[5-(2-hydroxypropan-2-yl)pyrimidin-2-yl]pyrrolidin-3-yl}benzamide]"
20,2.1 nM,"O=C(N[C@H]1CC[C@H](NC2COC2)CC1)c1ccc(-c2nccc3occc23)cc1 [Example 295, 4-(furo[3,2-c]pyridin-4-yl)-N-[trans-4-(oxetan-3-ylamino)cyclohexyl]benzamide]"
21,2.3 nM,"O=C(Nc1ccc(N2CCC(C(=O)N3CCOCC3)CC2)cc1)c1ccc(-c2nccc3occc23)cc1 [Example 222, 4-(furo[3,2-c]pyridin-4-yl)-N-(4-[4-(morpholine-4-carbonyl)piperidin-1-yl]phenyl)benzamide]"
